According to US20050287078A1, “Minimizing powder retention on surfaces” (MEDERIO AG, priority 2004, published 2005):

Test: Ipratropium climate stability tests (fine particle dose out of HandiHaler, Andersen impactor)
Conditions: Atrovent powder, 1 month at 25° C./60% Rh or 40° C./75% Rh, FIG. 4
Procedure: The powder was withdrawn from the originator's capsules and transferred to the capsules again after climate storage. The aerodynamic fine particle fraction (FPF) in the emitted dose from the HandiHaler® was measured using Andersen impactors according to European Pharmacopoeia (EP) and US Pharmacopoeia (USP). All analytical work were then performed according to standardized methods using a state of the art High Performance Liquid Chromatograph (HPLC) system.
Aerodynamic fine particle fraction of metered and delivered dose out of Handihaler® using Atrovent® formulation powder was analyzed. Transfer of powder from and back into originator capsules was performed in relative humidity below 10%. The test was performed with 4 kPa pressure drop over the HandiHaler® at room temperature and laboratory ambient conditions.
An in-use stability test was carried out of the aerodynamic fine particle fraction of metered and delivered dose out of Handihaler®. From the blister holding the Atrovent® capsules the powder was transferred to a medium moisture barrier container and sealed. The containers were put for 1 month in 25° C. and 60% Rh. The container holding the powder was then put in an exicator for 2 h before tests were performed. The inhaler test was performed with 4 kPa pressure drop over the HandiHaler® at room temperature and laboratory ambient conditions. […]

## CC(C)[N+]1(C)[C@@H]2CC[C@H]1CC(OC(=O)C(CO)c1ccccc1)C2.[Br-] (stereo partly shown) [ipratropium bromide]
  Moisture sensitivity (drop in fine particle dose, FPD): very moisture sensitive
